Read-outs that look alike come from different tables or passages of the source.
Columns and labels:
PC-3 = experiment: MTT cell viability assay, PC-3; assay type: cell-based, human; details: for IC50: Homo sapiens; for Selectivity index (SI): ratio of IC50 values healthy (HEK293) / PC-3
From the text: (§1) Blokhin National Medical Research Center of Oncology (the Ministry of Health of the Russian Federation, Moscow).

A549 = experiment: MTT cell viability assay, A549; assay type: cell-based, human; details: for IC50: Homo sapiens; for Selectivity index (SI): ratio of IC50 values healthy (HEK293) / A549
From the text: as §1

HEpG2 = experiment: MTT cell viability assay, HEpG2; assay type: cell-based, human; details: for IC50: Homo sapiens; for Selectivity index (SI): ratio of IC50 values healthy (HEK293) / HEpG2
From the text: as §1

HCT116 = experiment: MTT cell viability assay, HCT116; assay type: cell-based, human; details: for IC50: Homo sapiens, HCT-116; for Selectivity index (SI): ratio of IC50 values healthy (HEK293) / HCT116
From the text: as §1

MCF-7 = experiment: MTT cell viability assay, MCF-7; assay type: cell-based, human; details: for IC50: Homo sapiens, MCF7; for Selectivity index (SI): ratio of IC50 values healthy (HEK293) / MCF-7
From the text: as §1

human cancer cell lines = experiment: MTT assay, panel of cancer cell lines; details: for IC50: Homo sapiens; for cytotoxicity in the screening studies: MTT screening, Table S1
Method: In this study, the human embryonic kidney cell line HEK293 was used as the non-cancerous cell line.
To investigate the cytotoxic activity of the compounds under study, the MTT colorimetric assay [45] was performed. […] After 72 h, 20 μL of 5 mg/mL solution of MTT (PanEco, Moscow, Russia), in sterile phosphate-buffered saline (PBS; PanEco, Moscow, Russia), was added to each well and further incubated for 4 h. Then, the medium with the compounds was removed, and the formed formazan crystals were dissolved in 100 μL of DMSO. […] The IC50 values were determined from dose-dependent curves, using Prism 6.0 (GraphPad Software, Boston, MA, USA).

HEK293 = experiment: MTT cell viability assay, HEK293; assay type: cell-based; details: Homo sapiens
From the text: as §1

MS = experiment: MTT cell viability assay, MS; assay type: cell-based, human; details: for IC50: Homo sapiens; for Selectivity index (SI): ratio of IC50 values healthy (HEK293) / MS;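 on IC50 (mean ± SD): MS is a melanocyte cell line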
From the text: as §1

HBL-100 = experiment: MTT cell viability assay, HBL-100; assay type: cell-based, human; details: for IC50: Homo sapiens; for Selectivity index (SI): ratio of IC50 values healthy (HEK293) / HBL-100
Method: (§2) The cells were cultured in a humidified CO2 incubator (model 460-CE; Thermo Fisher Scientific, Waltham, MA, USA) at +37 °C and 5% CO2.
(§3) The percentage of the viable cells was calculated according to the following equation: cell viability (%) = 100 × (mean absorbance in the treatment group/mean absorbance in the control group). The results were expressed pictorially using Prism 6.0 (GraphPad Software, Boston, MA, USA).

RD TE32 = experiment: MTT cell viability assay, RD TE32; assay type: cell-based, human; details: for IC50: Homo sapiens; for Selectivity index (SI): ratio of IC50 values healthy (HEK293) / RD TE32
From the text: as §1

HBL-100/Dox = experiment: MTT cell viability assay, HBL-100/Dox; assay type: cell-based, human; details: for IC50: Homo sapiens; for Selectivity index (SI): ratio of IC50 values healthy (HEK293) / HBL-100/Dox
Method: as §2, §3

[1] = PC-3, MTT, 72 h of treatment, read-out: IC50 Values (Mean ± SD)
[2] = Table S1, PC-3, read-out: IC50 (mean ± SD)
[3] = A549, MTT, 72 h of treatment, read-out: IC50 Values (Mean ± SD)
[4] = HEpG2, MTT, 72 h of treatment, read-out: IC50 Values (Mean ± SD)
[5] = HCT116, MTT, 72 h of treatment, read-out: IC50 Values (Mean ± SD)
[6] = Table S1, HCT116, read-out: IC50 (mean ± SD)
[7] = MCF-7, MTT, 72 h of treatment, read-out: IC50 Values (Mean ± SD)
[8] = Table S1, MCF-7, read-out: IC50 (mean ± SD)
[9] = read-out: moderate activity (range)
[10] = HEK293, MTT, 72 h of treatment, read-out: IC50 Values (Mean ± SD)
[11] = Table S1, HEK293, read-out: IC50 (mean ± SD)
[12] = MS, MTT, 72 h of treatment, read-out: IC50 Values (Mean ± SD)
[13] = HBL-100, MTT, 72 h of treatment, read-out: IC50 Values (Mean ± SD)
[14] = Table S1, HBL-100, read-out: IC50 (mean ± SD)
[15] = RD TE32, MTT, 72 h of treatment, read-out: IC50 Values (Mean ± SD)
[16] = Table S1, RD TE32, read-out: IC50 (mean ± SD)
[17] = HBL-100, 72 h, read-out: IC50 Values (Mean ± SD)
[18] = HBL-100, read-out: IC50 (mean ± SD)
[19] = Table S1, A549, read-out: IC50 (mean ± SD)
[20] = Table S1, MS, read-out: IC50 (mean ± SD)
[21] = Table S1, HEpG2, read-out: IC50 (mean ± SD)

| Structure (SMILES) | IC50 (PC-3; [1]) | IC50 (PC-3; [2]) | Selectivity index (SI) (PC-3) | IC50 (A549; [3]) | Selectivity index (SI) (A549) | IC50 (HEpG2; [4]) | Selectivity index (SI) (HEpG2) | melting point | IC50 (HCT116; [5]) | IC50 (HCT116; [6]) | Selectivity index (SI) (HCT116) | IC50 (MCF-7; [7]) | IC50 (MCF-7; [8]) | Selectivity index (SI) (MCF-7) | cytotoxicity in the screening studies (human cancer cell lines) | IC50 (HEK293; [11]) | IC50 (HBL-100; [14]) | IC50 (RD TE32; [16]) | IC50 (HBL-100/Dox; [18]) | IC50 (A549; [19]) | other results |
| --- | --- | --- | --- | --- | --- | --- | --- | --- | --- | --- | --- | --- | --- | --- | --- | --- | --- | --- | --- | --- | --- |
| C=C1C[C@H](C#N)C[C@@]2(C)C1CC[C@]1(C)C2CCC2C3C(C(C)C)CC[C@]3(CO)CC[C@]21C (some centres unmarked) [compound 12, 2-Cyano-28-hydroxy-3,4-seco-3-nor-2,24-cyclolup-4(23)-ene] | 55.7 ± 4.9 µM | 55.7 ± 4.89 µM | 1.37 | 44.4 ± 2.4 µM | 1.72 | > 100 µM | < 0.77 | 185.1 °C | 51 ± 3.7 µM | 51 ± 3.67 µM | 1.50 | 64.2 ± 3 µM | 64.2 ± 3.01 µM | 1.19 | relatively weak or moderate cytotoxicity | 76.5 ± 2.49 µM | 36.6 ± 1.44 µM | 98.6 ± 2.33 µM | 63 ± 1.92 µM | – | IC50 (human cancer cell lines; [9]): 16 to 77.8 µM; IC50 (HEK293; [10]): 76.5 ± 2.5 µM; IC50 (MS; [12]): > 200 µM; Selectivity index (SI) (MS): < 0.38; IC50 (HBL-100; [13]): 36.6 ± 1.4 µM; Selectivity index (SI) (HBL-100): 2.09; IC50 (RD TE32; [15]): 98.6 ± 2.3 µM; Selectivity index (SI) (RD TE32): 0.78; IC50 (HBL-100/Dox; [17]): 63 ± 1.9 µM; Selectivity index (SI) (HBL-100/Dox): 1.21 |
| CC(C)C1CC[C@]2(CO)CC[C@]3(C)C(CCC4[C@@]5(C)CC(C#N)=CC(=O)C5CC[C@]43C)C12 (some centres unmarked) [compound 14, 2-Cyano-28-hydroxy-4-oxo-3,4-seco-3,23-dinor-2,24-cyclolup-2(24)-ene] | 28.3 ± 2.3 µM | 28.3 ± 2.29 µM | 2.75 | 63.2 ± 1.4 µM | 1.23 | > 100 µM | < 0.78 | 121 °C | 49.9 ± 0.1 µM | – | 1.56 | 56.7 ± 3.7 µM | 56.7 ± 3.72 µM | 1.37 | relatively weak or moderate cytotoxicity | 77.8 ± 2.9 µM | 46.9 ± 2.22 µM | – | 54 ± 1.82 µM | 63.2 ± 1.42 µM | IC50 (human cancer cell lines; [9]): 16 to 77.8 µM; IC50 (HEK293; [10]): 77.8 ± 2.9 µM; IC50 (MS; [12]): 69.1 ± 1 µM; Selectivity index (SI) (MS): 1.13; IC50 (HBL-100; [13]): 46.9 ± 2.2 µM; Selectivity index (SI) (HBL-100): 1.66; IC50 (RD TE32; [15]): 49.1 ± 1.4 µM; Selectivity index (SI) (RD TE32): 1.58; IC50 (HBL-100/Dox; [17]): 54 ± 1.8 µM; Selectivity index (SI) (HBL-100/Dox): 1.44 |
| COC(=O)[C@]12CCC(C(C)C)C1C1CCC3[C@@](C)(CCC#N)C(C(=O)CBr)CC[C@@]3(C)[C@]1(C)CC2 (some centres unmarked) [compound 30, 24-Bromo-2-cyano-4-oxo-3,4-seco-3,23-dinorlupan-28-oic acid methyl ester] | 34 ± 1.3 µM | 34.1 ± 1.28 µM | 0.71 | 27.7 ± 0.3 µM | 0.87 | 49.6 ± 0.5 µM | 0.49 | 124.4 °C | 13.5 ± 0.3 µM | – | 1.79 | 12 ± 0.1 µM | 12.04 ± 0.06 µM | 2.02 | relatively weak or moderate cytotoxicity | 24.2 ± 0.45 µM | 3.62 ± 0.33 µM | 7.05 ± 0.91 µM | 4.53 ± 0.21 µM | 27.7 ± 0.31 µM | IC50 (human cancer cell lines; read-out: cytotoxic values (range)): 3.6 to 13.5 µM; IC50 (HEK293; [10]): 24.2 ± 0.5 µM; IC50 (MS; [12]): 45.9 ± 2.2 µM; IC50 (MS; [20]): 46 ± 2.2 µM; Selectivity index (SI) (MS): 0.53; IC50 (HBL-100; [13]): 3.6 ± 0.3 µM; Selectivity index (SI) (HBL-100): 6.72; IC50 (RD TE32; [15]): 7.1 ± 0.9 µM; Selectivity index (SI) (RD TE32): 3.41; IC50 (HBL-100/Dox; [17]): 4.5 ± 0.2 µM; Selectivity index (SI) (HBL-100/Dox): 5.37 |
| COC(=O)[C@]12CCC(C(C)C)C1C1CCC3[C@@]4(C)C[C@@H](C#N)C[C@H](O)C4CC[C@@]3(C)[C@]1(C)CC2 (stereo partly drawn) [compound 19, 2-Cyano-4β-hydroxy-3,4-seco-3,23-dinor-2,24-cyclolup-28-oic acid methyl ester] | 17.2 ± 0.7 µM | 17.2 ± 0.69 µM | 2.01 | 25.9 ± 1.8 µM | 1.34 | 31.8 ± 2.7 µM | 1.09 | 189.7 °C | 28.2 ± 2.1 µM | 28.2 ± 2.06 µM | 1.23 | 47.9 ± 0.3 µM | – | 0.72 | relatively weak or moderate cytotoxicity | 34.6 ± 1.09 µM | 16 ± 0.94 µM | 25.17 ± 0.11 µM | 21.1 ± 2.23 µM | 25.9 ± 1.75 µM | IC50 (human cancer cell lines; [9]): 16 to 77.8 µM; IC50 (HEK293; [10]): 34.6 ± 1.1 µM; IC50 (MS; [12]): 22.2 ± 2 µM; Selectivity index (SI) (MS): 1.56; IC50 (HBL-100; [13]): 16 ± 0.9 µM; Selectivity index (SI) (HBL-100): 2.16; IC50 (RD TE32; [15]): 25.2 ± 0.1 µM; Selectivity index (SI) (RD TE32): 1.37; IC50 (HBL-100/Dox; [17]): 21.1 ± 2.2 µM; Selectivity index (SI) (HBL-100/Dox): 1.64 |
| C=C1C[C@H](C#N)C[C@@]2(C)C1CC[C@]1(C)C2CCC2C3C(C(C)C)CC[C@]3(C(=O)OC)CC[C@]21C (some centres unmarked) [compound 13, 2-Cyano-3,4-seco-3-nor-2,24-cyclolup-4(23)-en-28-oic acid methyl ester] | – | > 100 µM | – | – | – | – | – | 177.7 °C | – | > 100 µM | – | – | > 100 µM | – | – | > 200 µM | > 100 µM | > 100 µM | > 200 µM | > 100 µM | IC50 (HEpG2; [21]): > 100 µM; IC50 (MS; [20]): > 100 µM |
| C=C(C=O)C1CC[C@]2(C)C(CCC3C4C(C(C)C)CC[C@]4(C(=O)OC)CC[C@]32C)[C@@]1(C)CCC#N (some centres unmarked) [compound 5, 2-Cyano-3,4-seco-3-norlup-4(23)-en-24-al-28-oic acid methyl ester] | – | > 100 µM | – | – | – | – | – | 97.3 °C | – | > 200 µM | – | – | > 200 µM | – | – | > 200 µM | > 200 µM | > 100 µM | > 100 µM | > 100 µM | IC50 (HEpG2; [21]): > 100 µM; IC50 (MS; [20]): > 100 µM |
| CC(=O)C1CC[C@]2(C)C(CCC3C4C(C(C)C)CC[C@]4(COC(=O)c4ccccc4)CC[C@]32C)[C@@]1(C)CCC#N (some centres unmarked) [compound 20, 28-Benzoyloxy-2-cyano-4-oxo-3,4-seco-3,23-dinorlupane] | – | > 100 µM | – | – | – | – | – | 185.8 °C | – | > 100 µM | – | – | > 100 µM | – | – | > 100 µM | > 200 µM | > 100 µM | > 200 µM | > 100 µM | IC50 (HEpG2; [21]): > 100 µM; IC50 (MS; [20]): > 100 µM |

Source: PMC10298530, “Synthesis and Anticancer Activity of A-Ring-Modified Derivatives of Dihydrobetulin” (International Journal of Molecular Sciences, 2023)
